Where two headings read alike, the source gives them in different places.
Key:
IL-18 [1] = system: IL-18
Experimental: A randomized, double-blind, placebo-controlled study was administered over six cycles. Patients were treated with chlorite 2 mg/kg/infusion, or placebo. Patients were scheduled to receive a total of 20 infusions over 6 cycles during a 25-week (or 6-month) treatment period. […] Levels of biomarkers can be measured with techniques known in the art, e.g., ELISA or flow cytometry.

IL-18 [2] = conditions: 1-2 mg/kg/infusion, 6 months; for plasma level of IL-18 after treatment: responders
Experimental: Thirty two patients diagnosed with ALS were treated with chlorite over the course of 6 months. The initial plasma concentration of IL-18 in each patient was recorded and set as the baseline level. Patients were treated with 1-2 mg/kg/infusion chlorite over the course of 6 months. ALSFRS-R scores and IL-18 levels were recorded at different time points during the treatment and compared with the initial concentration.

LPS = conditions: for responders with decreased LPS: at least 6 months of treatment
Experimental: (§1) A randomized, double-blind, placebo-controlled study was administered over six cycles. Patients were treated with chlorite 2 mg/kg/infusion, or placebo. […] Samples from both responders and non-responders were collected and tested at different time points, e.g., at baseline (pre-dose Cycle 1, Week 1), 1-month, 2-month, 3-month, 4-month, 5-month and 6-month. ALSFRS-R scores and biomarkers levels were measured in responders and non-responders at selected time points and compared to the placebo group.

ALS patients [3] = conditions: for decline in vital capacity: at least 6 months of treatment
Experimental: as §1

[4] = system: CD16 expression on CD16 bright monocytes; conditions: 0.2-3.2 mg/kg single dose, 24 hours after dosing
PD patients = conditions: 1-2 mg/kg/infusion, 6 months
ALS patients [5] = conditions: for ALSFRS-R level over the course of treatment: 1-2 mg/kg/infusion, 6 months
Experimental: Patients diagnosed with ALS are treated with chlorite over the course of 6 months. Based upon the initial concentration of IL-18 at the baseline or its baseline level, patients are sorted into two groups. Patients with baseline level of IL-18 higher than 60 pg/mL are assigned in IL-18-high group and patients with baseline level of IL-18 lower than 60 pg/mL are assigned in IL-18-low group. Both groups are treated with 1-2 mg/kg/infusion chlorite over the course of 6 months. ALSFRS-R scores and IL-18 levels are recorded at different time points during the treatment and compared between IL-18-high and IL-18-low groups.

ALS patients [6] = conditions: for mean decrease in ALSFRS-R score: 3-month off-drug follow-up; for estimated ALSFRS-R slope: patients less than the baseline median wr-CRP; for estimated ALSFRS-R slope decline: patients with baseline wrCRP at or above the median
AD patients = conditions: 1-2 mg/kg/infusion, 6 months
[7] = system: G93A SOD1 congenic strain of mice; conditions: preliminary studies (McGrath et al., 2010); cited from earlier work
ALS patients [8] = conditions: 1-2 mg/kg/infusion, at least 6 months

## sodium chlorite [NP001]
IL-18 [1]; high dose responders, at least 6 months of treatment
  responders with decreased IL-18: 80%
IL-18 [1]; low dose group responders (8), at least 6 months of treatment
  responders with decrease in IL-18: 1 patient
IL-18 [1]; non-responders, after 25 weeks
  change of plasma IL-18 level from baseline: increase
IL-18 [1]; responders, after 25 weeks of treatment
  change of plasma IL-18 level from baseline: decrease
IL-18 [2]; 32 ALS patients
  number of non-responders: 22
  number of responders: 10
IL-18 [2]
  plasma level of IL-18 after treatment: decreased
IL-18 [2]; listed as chlorite/NP001
  plasma level of IL-18 after treatment: capable of lowering IL-18 plasma level
LPS; high dose responders
  responders with decreased LPS: 70%
LPS; low dose group responders (8)
  responders with decreased LPS: half
LPS; non-responders, baseline about 0.35
  LPS level at week 24: about 0.2
LPS; non-responders, week 24
  decrease of LPS level from baseline: about 40%
LPS; responders, week 24, baseline about 0.3
  LPS level after treatment: undetectable level
LPS; responders, week 24, calculated with minimum detection level about 0.075
  decrease of LPS level from baseline: about 75%
ALS patients [3]; 2 mg/kg, patients with high plasma level of IL-18, IL-6, INF-g, and CPR
  disease progression of ALS patients: capable of slowing the disease progression
ALS patients [3]; high dose group (2 mg/kg), 6-month treatment period
  percentage of patients who did not progress (responders): 27%
ALS patients [3]; high dose group vs placebo (11%)
  percentage of non-progressing patients relative to placebo group: approximately 2.5 times
ALS patients [3]; non-responders, 1 mg
  decline in vital capacity: −17.7+/−17.9
ALS patients [3]; non-responders, 2 mg
  decline in vital capacity: −14.5+/−13.2
ALS patients [3]; responders
  ALSFRS-R score over the 6-month treatment period: remained stable
ALS patients [3]; responders, 1 mg
  decline in vital capacity: −8.95+/−10.1
ALS patients [3]; responders, 2 mg
  decline in vital capacity: −3.76+/−5.7
[4]
  level of CD16 expression on the CD16 bright subset of monocytes vs placebo: Dose-dependent changes
PD patients
  treatment of Parkinson's patients: capable of treating Parkinson's patients
ALS patients [5]; IL-18-high group (baseline IL-18 higher than 60 pg/mL)
  ALSFRS-R level over the course of treatment: stabilizes
ALS patients [5]; IL-18-high vs IL-18-low group
  decrease in IL-18 baseline level: can only be observed in IL-18-high group
ALS patients [5]; IL-18-low group (baseline IL-18 lower than 60 pg/mL)
  ALSFRS-R level over the course of treatment: no stabilization
ALS patients [6]; 1 mg/kg
  effect on ALSFRS-R slope and change from baseline compared to placebo: minimal or no effect dose
  mean decrease in ALSFRS-R score: −3.7
  estimated ALSFRS-R slope: −1.38
  estimated ALSFRS-R slope decline: −0.73 points per month
ALS patients [6]; 2 mg/kg
  mean decrease in ALSFRS-R score: −3.3
  estimated ALSFRS-R slope: −0.87
  estimated ALSFRS-R slope decline: −0.55 points per month
ALS patients [6]; 2 mg/kg, 6 months of treatment (Weeks 1 through 25)
  ALSFRS-R mean slope: −0.77 points per month
ALS patients [6]; 2 mg/kg, 6 months, concurrent placebo
  percent change in ALSFRS-R mean slope compared to placebo: 13%
ALS patients [6]; 2 mg/kg, baseline wrCRP at or above the median, p=0.2
  improvement in rate of progression compared to placebo: 41%
ALS patients [6]; 2 mg/kg, with addition of matched historical placebo control patients
  slowing of change in ALSFRS-R from baseline: 21%
ALS patients [6]; 2 mg/kg, with matched historical placebo controls, p=0.16
  improvement in the rate of progression compared to combined placebo controls: 19%
ALS patients [6]; 2 mg/kg, without addition of matched historical placebo control patients
  slowing of change in ALSFRS-R from baseline: 17%
ALS patients [6]; high dose (2 mg/kg), off-drug follow-up
  slower functional decline (residual) in mean change in ALSFRS-R compared to placebo: 11%
AD patients
  treatment of AD patients: capable of treating AD patients
[7]
  survival, treated compared to control mice: significant survival improvement
ALS patients [8]
  relationship between mean ALSFRS-R levels and mean baseline levels of biomarkers: linear relationship with a positive slope
